The test system of this assay is HepG2 cells. In words: Cell growth inhibition measurement (CCK-8), HepG2. It counts as cell-based. Particulars: Homo sapiens, HepG2, 72 h, highest EC50 measured during one or multiple operations, read-out: Inhibition activity against cancer cells, HepG2 (EC50). From the text: A HepG2 cell strain and an HCT-116 cell strain were purchased from Shanghai Institutes for Biological Sciences; a DMEM high-sugar culture medium and an MEM culture medium were purchased from Hyclone; fetal calf serum was purchased from Gibco; trypsin was purchased from Invitrogen Shanghai; a CCK-8 kit was purchased from Beyotime Institute of Biotechnology; and, the remaining cell culture mediums and other consumables were purchased from Corning China.
HepG2 cells and HCT-116 cells in the logarithmic growth phase were digested by trypsin. After the counting of uniform cell suspension, the cell density was adjusted as 1500 cells/well by a culture medium containing 10% serum. The cells were re-inoculated to a 96-well cell culture plate, and cultured to a volume of 200 μL at 37° C. in an incubator containing 5% CO2. The cells could be tested after being cultured for 24 h.
The cells cultured for 24 h were taken out from the incubator. The culture liquid in the well plate was sucked out, and 200 μL of compound solution prepared in the culture medium containing 10% fetal calf serum was added in each well. Five parallel mediums were provided for each concentration, and a DMSO culture medium was used as negative control. The culture mediums were cultured for 72 h at 37° C. in an incubator containing 5% CO2, and CCK-8 detection was performed.
A serum-free culture medium and CCK-8 solution were prepared, and CCK-8 working solution was prepared at a ratio of 10:1 (this process should be performed in dark place).
The cells cultured for 72 h were taken out from the incubator. The culture liquid in the well plate was sucked out, and 120 μL of the CCK-8 working solution was added in each well. A well plate without cells was also added with 120 μL of the CCK-8 working solution to serve as blank control. The well plates were cultured for 1 h at 37° C. in an incubator containing 5% CO2 (this process should be performed in dark place).
The well plates were taken out from the incubator, 100 μL of solution in each well was sucked out and added in a new 96-well plate, and the absorbance was measured at 450 nm (this process should be performed in dark place).
where Tx is the absorbance of the CCK-8 after the compound acts for 72 h;
C is the absorbance of the CCK-8 after the negative control wells are cultured for 72 h; and
B is the absorbance of the CCK-8 in the blank control wells.
The test results of the compounds prepared according to the embodiments during the measurement are shown in Table 3, wherein the measured highest EC50 of the compounds during one operation or multiple operations is classified according to the following description: […]

A value given as a limit tells only on which side of the number the result lay.

As to `CN1CCN(c2ccc(-c3ccc(S(=O)(=O)N4CC=C(C(=O)NO)CC4)cc3)cc2)CC1` [Compound 29, N-hydroxyl-1-((4′-(4-methylpiperazinyl)-[1,1′-biphenyl]-4-yl)sulfonyl)-1,2,3,6-tetrahydropyridine-4-formamide], the EC50 is < 100 nM.

One may read the EC50 as the concentration at which the effect is half-maximal.

Source of the values: patent US11149008B2, “Sulfamide derivatives and preparation method and use thereof” (HitGen Ltd., priority 2015, dated 2021).
